From US11753404B2, “Aminothiazole compounds as c-Kit inhibitors” (Ariad Pharmaceuticals, Inc., priority 2016, dated 2023) come the findings set out here.

Common to all, as to assay: c-Kit assay: Ba/F3 KIT mutant cell viability (Cell Titer-Glo, 72 hours)
Holding throughout (format): cell-based
Holding throughout (conditions): viability after 72 hours
For orientation: Cellular ATP, detected with luciferase, serves as a proxy for viable cell number.

Test [1] deals with T1, BAF3 FL KIT EX11DEL/T670I (Homo sapiens, UniProt P10721, T670I, cells depend on it, form not given).
T1 construct: BAF3 FL KIT EX11DEL/T670I
T1 sequence (P10721 with tags, fused parts or gaps DEL557-558/T670I, form open): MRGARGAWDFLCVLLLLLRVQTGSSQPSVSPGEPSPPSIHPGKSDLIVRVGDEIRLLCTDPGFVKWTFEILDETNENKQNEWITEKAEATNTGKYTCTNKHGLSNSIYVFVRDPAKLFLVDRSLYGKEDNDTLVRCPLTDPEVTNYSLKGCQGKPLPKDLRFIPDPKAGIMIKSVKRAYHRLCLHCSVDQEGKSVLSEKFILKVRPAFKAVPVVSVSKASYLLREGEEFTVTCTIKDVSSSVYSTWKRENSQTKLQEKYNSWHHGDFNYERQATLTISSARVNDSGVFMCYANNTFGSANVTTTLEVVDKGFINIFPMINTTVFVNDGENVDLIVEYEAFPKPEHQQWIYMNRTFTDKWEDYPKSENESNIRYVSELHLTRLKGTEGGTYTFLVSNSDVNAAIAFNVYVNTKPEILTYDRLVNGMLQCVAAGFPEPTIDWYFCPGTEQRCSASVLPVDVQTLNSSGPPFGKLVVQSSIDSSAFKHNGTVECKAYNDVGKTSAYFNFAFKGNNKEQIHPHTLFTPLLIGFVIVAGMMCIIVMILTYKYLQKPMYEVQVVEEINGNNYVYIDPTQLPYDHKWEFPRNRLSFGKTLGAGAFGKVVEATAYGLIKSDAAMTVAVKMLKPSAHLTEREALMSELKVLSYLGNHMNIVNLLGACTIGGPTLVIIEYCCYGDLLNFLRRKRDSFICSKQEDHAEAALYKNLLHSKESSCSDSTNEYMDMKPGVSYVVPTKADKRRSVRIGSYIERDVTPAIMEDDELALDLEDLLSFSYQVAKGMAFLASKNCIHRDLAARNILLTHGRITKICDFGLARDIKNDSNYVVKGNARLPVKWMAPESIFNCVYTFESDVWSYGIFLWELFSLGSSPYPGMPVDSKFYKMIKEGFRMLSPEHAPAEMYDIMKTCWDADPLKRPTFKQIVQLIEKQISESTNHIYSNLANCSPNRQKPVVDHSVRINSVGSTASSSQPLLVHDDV
How it is done: (§1) Generation of DBa/F3 KIT Mutant Engineered Cell Lines
(§2) KIT cDNAs were synthesized by GenScript and cloned into the pLVX-IRES-Puro vector (Clontech). Viral particles were produced by transfecting pLVX-IRES-puro vectors containing KIT mutant genes into HEK293 cells (Invitrogen) using the Trans-Lentiviral ORF Packaging Kit (Thermo Scientific). 48 hours post-transfection, virus-containing supernatants were harvested and incubated for another 48-72 hours with parental Ba/F3 cells (DSMZ) in the presence of 10 ng/mL IL-3 (R&D Systems). Transduced Ba/F3 cells were then selected by IL-3 withdrawal and puromycin (0.5-1 μg/mL, Invitrogen).
(§3) Cell lines (e.g., EX11DEL, EX11DEL/D816H, EX11DEL/T670I, and EX11DEL/V654A) were plated into 384 well plates using RPMI 1640 supplemented with 10% FBS at densities that produced linear growth and incubated at 37° C. in 5% (v/v) CO2. Cells were treated with eight concentrations of compound over a 4-fold dilution (10 μM to 0.61 nM) and viability was assessed using Cell Titer-Glo assay (Promega) after 72 hours. Data were plotted as percent viability relative to vehicle-treated cells. Dose-responses curves were generated and used to calculate IC50 values.

The target of test [2] is T2, BAF3 FL KIT EX11DEL/D816H (Homo sapiens, UniProt P10721, D816H, cells depend on it, form not given).
T2 construct: BAF3 FL KIT EX11DEL/D816H
T2 sequence (P10721 with tags, fused parts or gaps DEL557-558/D816H, form open): as the sequence (P10721 with tags, fused parts or gaps DEL557-558/T670I, form open) above, with I668T, D814H counted along it
As for the experimental part: as §1, §2, §3

Test [3] concerns the target T3, BAF3 FL KIT EX11DEL/V654A (Homo sapiens, UniProt P10721, V654A, cells depend on it, form not given).
T3 construct: BAF3 FL KIT EX11DEL/V654A
As for the experimental part: as §1, §2, §3

The target in test [4] is T4, BAF3 FL KIT EX11DEL (Homo sapiens, UniProt P10721, cells depend on it, form not given).
T4 construct: BAF3 FL KIT EX11DEL
T4 sequence (P10721 with tags, fused parts or gaps DEL557-558): as the sequence (P10721 with tags, fused parts or gaps DEL557-558/T670I, form open) above, with I668T counted along it
How it is done:
as §1, §2, §3

Bounds are passed on as bounds.

T3 sequence (P10721 with tags, fused parts or gaps DEL557-558/V654A, form open): as the sequence (P10721 with tags, fused parts or gaps DEL557-558/T670I, form open) above, with V652A, I668T counted along it

As usually defined, the GI50 is the concentration giving 50% growth inhibition. Low readings indicate more potent growth inhibition, high ones less potent growth inhibition. For `CC(=O)N1CCN(C(=O)Nc2ncc(C#Cc3cc(C(=O)Nc4cc(C(F)(F)F)ccn4)ccc3C)s2)CC1` [I-37, 4-acetyl-N-(5-((2-methyl-5-((4-(trifluoromethyl)pyridin-2-yl)carbamoyl)phenyl)ethynyl)thiazol-2-yl)piperazine-1-carboxamide], the concentration for 50% growth inhibition (GI50) in test [1], in test [2], in test [3] and in test [4] was below 10 nM in each case.

Regarding `Cc1ccc(NC(=O)c2cc(C(F)(F)F)ccn2)cc1C#Cc1cnc(NC(=O)N(C)CCN(C)C)s1` [I-58, N-(3-((2-(3-(2-(dimethylamino)ethyl)-3-methylureido)thiazol-5-yl)ethynyl)-4-methylphenyl)-4-(trifluoromethyl)picolinamide], the GI50 in test [1] was 100 to 10000 nM; in test [2], 50 to 100 nM; in test [3] it was 50 to 100 nM; in test [4], below 10 nM.

Regarding `Cc1ccc(C(=O)Nc2cc(C(F)(F)F)ccn2)cc1C#Cc1cnc(NC(=O)N(C)C2CCC(N)CC2)s1` (centres unmarked) [I-33, 3-((2-(3-(4-aminocyclohexyl)-3-methylureido)thiazol-5-yl)ethynyl)-4-methyl-N-(4-(trifluoromethyl)pyridin-2-yl)benzamide], the GI50 in test [1] lay within 10 to 50 nM; in test [2], 50 to 100 nM; in test [3] it was 50 to 100 nM; in test [4] it was 10 to 50 nM.

Regarding `Cc1ccc(C(=O)Nc2cc(C(F)(F)F)ccn2)cc1C#Cc1cnc(NC(=O)NCCN)s1` [I-38, 3-((2-(3-(2-aminoethyl)ureido)thiazol-5-yl)ethynyl)-4-methyl-N-(4-(trifluoromethyl)pyridin-2-yl)benzamide], the GI50 in test [1] is 50 to 100 nM; in test [2], 50 to 100 nM; in test [3], 50 to 100 nM; in test [4] it was below 10 nM.

For the compound `Cc1ccc(C(=O)Nc2cc(C(F)(F)F)ccn2)cc1C#Cc1cnc(NC(=O)N(C)C2CCCN(C)C2)s1` (centres unmarked) [I-32, 4-methyl-3-((2-(3-methyl-3-(1-methylpiperidin-3-yl)ureido)thiazol-5-yl)ethynyl)-N-(4-(trifluoromethyl)pyridin-2-yl)benzamide], the GI50 in test [1] is 10 to 50 nM; in test [2], 10 to 50 nM; in test [3], 10 to 50 nM; in test [4], below 10 nM.

On to `Cc1ccc(C(=O)Nc2cc(C(F)(F)F)ccn2)cc1C#Cc1cnc(NC(=O)N(C)CC(C)(C)O)s1` [I-21, 3-((2-(3-(2-hydroxy-2-methylpropyl)-3-methylureido)thiazol-5-yl)ethynyl)-4-methyl-N-(4-(trifluoromethyl)pyridin-2-yl)benzamide], for which the GI50 in test [1] was 10 to 50 nM; in test [2], 10 to 50 nM; in test [3] it was 10 to 50 nM; in test [4] it was below 10 nM.

Regarding `Cc1ccc(C(=O)Nc2cc(C(F)(F)F)ccn2)cc1C#Cc1cnc(NC(=O)N(C)CCO)s1` [I-10, 3-((2-(3-(2-hydroxyethyl)-3-methylureido)thiazol-5-yl)ethynyl)-4-methyl-N-(4-(trifluoromethyl)pyridin-2-yl)benzamide], the GI50 in test [1], in test [2], in test [3] and in test [4] was below 10 nM throughout.

Turning to `Cc1ccc(NC(=O)c2cc(C(F)(F)F)ccn2)cc1C#Cc1cnc(NC(=O)N(C)CCO)s1` [I-60, N-(3-((2-(3-(2-hydroxyethyl)-3-methylureido)thiazol-5-yl)ethynyl)-4-methylphenyl)-4-(trifluoromethyl)picolinamide], the GI50 in test [1] was 50 to 100 nM; in test [2], 10 to 50 nM; in test [3] it was 10 to 50 nM; in test [4] it was below 10 nM.

With `Cc1ccc(C(=O)Nc2cc(C(F)(F)F)ccn2)cc1C#Cc1cnc(NC(=O)NC2CC2)s1` [I-17, 3-((2-(3-cyclopropylureido)thiazol-5-yl)ethynyl)-4-methyl-N-(4-(trifluoromethyl)pyridin-2-yl)benzamide], the GI50 in test [1] is 10 to 50 nM; in test [2] it was 10 to 50 nM; in test [3], 10 to 50 nM; in test [4] it was below 10 nM.

As to `Cc1ccc(C(=O)Nc2cc(C(F)(F)F)ccn2)cc1C#Cc1cnc(NC(=O)N2CCN(CCO)CC2)s1` [I-27, 4-(2-hydroxyethyl)-N-(5-((2-methyl-5-((4-(trifluoromethyl)pyridin-2-yl)carbamoyl)phenyl)ethynyl)thiazol-2-yl)piperazine-1-carboxamide], the GI50 in test [1] is below 10 nM; in test [2], 10 to 50 nM; in test [3], 10 to 50 nM; in test [4], below 10 nM.

For `Cc1ccc(C(=O)Nc2cc(C(F)(F)F)ccn2)cc1C#Cc1cnc(NC(=O)C(C)(C)C)s1` [I-52, 4-methyl-3-((2-pivalamidothiazol-5-yl)ethynyl)-N-(4-(trifluoromethyl)pyridin-2-yl)benzamide], the GI50 was in the range of 100 to 10000 nM in test [1], 100 to 10000 nM in test [2], 100 to 10000 nM in test [3] and 10 to 50 nM in test [4].

In the case of `COCCN(C)C(=O)Nc1ncc(C#Cc2cc(NC(=O)c3cc(C(F)(F)F)ccn3)ccc2F)s1` [I-62, N-(4-fluoro-3-((2-(3-(2-methoxyethyl)-3-methylureido)thiazol-5-yl)ethynyl)phenyl)-4-(trifluoromethyl)picolinamide], the concentration for 50% growth inhibition (GI50) was below 10 nM in test [1], 10 to 50 nM in test [2], 10 to 50 nM in test [3] and below 10 nM in test [4].

As for `Cc1ccc(C(=O)Nc2cc(C(F)(F)F)ccn2)cc1C#Cc1cnc(NC(=O)NCCN2CCC(O)C2)s1` (centres unmarked) [I-18, 3-((2-(3-(2-(3-hydroxypyrrolidin-1-yl)ethyl)ureido)thiazol-5-yl)ethynyl)-4-methyl-N-(4-(trifluoromethyl)pyridin-2-yl)benzamide], the 50% growth inhibitory concentration (GI50) in test [1] is 10 to 50 nM; in test [2], 10 to 50 nM; in test [3], 10 to 50 nM; in test [4], below 10 nM.

For `Cc1ccc(C(=O)Nc2cc(C(F)(F)F)ccn2)cc1C#Cc1cnc(NC(=O)N2CCN(C)CC2)s1` [I-23, 4-methyl-N-(5-((2-methyl-5-((4-(trifluoromethyl)pyridin-2-yl)carbamoyl)phenyl)ethynyl)thiazol-2-yl)piperazine-1-carboxamide], the GI50 is below 10 nM in test [1], 10 to 50 nM in test [2], 10 to 50 nM in test [3] and below 10 nM in test [4].

With `Cc1ccc(C(=O)Nc2cc(C(F)(F)F)ccn2)cc1C#Cc1cnc(NC(=O)NCCCCN)s1` [I-31, 3-((2-(3-(4-aminobutyl)ureido)thiazol-5-yl)ethynyl)-4-methyl-N-(4-(trifluoromethyl)pyridin-2-yl)benzamide], the GI50 in test [1] was 10 to 50 nM; in test [2] it was 50 to 100 nM; in test [3], 50 to 100 nM; in test [4], 10 to 50 nM.

Take `Cc1ccc(C(=O)Nc2cc(C(F)(F)F)ccn2)cc1C#Cc1cnc(NC(=O)N2CCOC(CN(C)C)C2)s1` (centres unmarked) [I-34, 2-((dimethylamino)methyl)-N-(5-((2-methyl-5-((4-(trifluoromethyl)pyridin-2-yl)carbamoyl)phenyl)ethynyl)thiazol-2-yl)morpholine-4-carboxamide]: the GI50 was 10 to 50 nM in test [1], 10 to 50 nM in test [2], 10 to 50 nM in test [3] and below 10 nM in test [4].

As for `Cc1ccc(C(=O)Nc2cc(C(F)(F)F)ccn2)cc1C#Cc1cnc(NC(=O)N2CCC(N3CCN(C)CC3)CC2)s1` [I-41, N-(5-((2-methyl-5-((4-(trifluoromethyl)pyridin-2-yl)carbamoyl)phenyl)ethynyl)thiazol-2-yl)-4-(4-methylpiperazin-1-yl)piperidine-1-carboxamide], the GI50 is 10 to 50 nM in test [1], 10 to 50 nM in test [2], 10 to 50 nM in test [3] and below 10 nM in test [4].

Turning to `COCCN(C)C(=O)Nc1ncc(C#Cc2cc(C(=O)Nc3cccc(C(F)(F)F)c3OC)ccc2C)s1` [I-47, N-(2-methoxy-3-(trifluoromethyl)phenyl)-3-((2-(3-(2-methoxyethyl)-3-methylureido)thiazol-5-yl)ethynyl)-4-methylbenzamide], the GI50 was 100 to 10000 nM in test [1], 10 to 50 nM in test [2], 10 to 50 nM in test [3] and below 10 nM in test [4].

With `COCCN(C)C(=O)Nc1ncc(C#Cc2cc(C(=O)Nc3ccc(CN4CCCC4)c(C(F)(F)F)c3)ccc2C)s1` [I-46, 3-((2-(3-(2-methoxyethyl)-3-methylureido)thiazol-5-yl)ethynyl)-4-methyl-N-(4-(pyrrolidin-1-ylmethyl)-3-(trifluoromethyl)phenyl)benzamide], the GI50 in test [1] was in the range of 10 to 50 nM; in test [2] it was 10 to 50 nM; in test [3], 50 to 100 nM; in test [4], 10 to 50 nM.

Take `CNC(=O)Nc1ncc(C#Cc2cc(C(=O)Nc3cc(C(F)(F)F)ccn3)ccc2C)s1` [I-4, 4-methyl-3-((2-(3-methylureido)thiazol-5-yl)ethynyl)-N-(4-(trifluoromethyl)pyridin-2-yl)benzamide]: the GI50 in test [1] was below 10 nM; in test [2], below 10 nM; in test [3] it was 10 to 50 nM; in test [4], below 10 nM.
